pIC50: −log10 of the molar value. Active and inactive are the calls of the source. No cut-off for these calls is given here.
Key:
[1] = system: L6; test: Cytotoxicity at rat L6 cells after 72 hrs by microplate alamar blue assay; format: cell-based
[2] = system: Plasmodium berghei; test: Antimalarial activity against GFP-transfected Plasmodium berghei strain ANKA infected in NMRI mouse assessed as reduction in parasitemia at 100 mg/kg/day, po administered for 4 consecutive days measured 24 hrs after last treatment by FACS analysis relative to control; format: functional; set-up: scale not given: the % may be the effect or the level left
[3] = system: Plasmodium falciparum
Description: (§1) Antimalarial activity against multidrug-resistant Plasmodium falciparum K1 infected in human red blood cells assessed as 3H-hypoxanthine incorporation after 48 hrs by liquid scintillation counting

[4] = system: Plasmodium berghei; test: Antimalarial activity against GFP-transfected Plasmodium berghei strain ANKA infected in NMRI mouse assessed as increase in median survival time at 100 mg/kg/day, po administered for 4 days measured up to 30 days post infection (reference value: 5 to 7 days); format: functional
[5] = system: Plasmodium berghei; test: Antimalarial activity against GFP-transfected Plasmodium berghei strain ANKA infected in NMRI mouse assessed as reduction in parasitemia at 50 mg/kg/day, ip administered for 4 consecutive days measured 24 hrs after last treatment by FACS analysis relative to control; format: functional; set-up: scale not given: the % may be the effect or the level left; details: route intraperitoneal
[6] = system: Plasmodium berghei; test: Antimalarial activity against GFP-transfected Plasmodium berghei strain ANKA infected in NMRI mouse assessed as increase in median survival time at 50 mg/kg/day, ip administered for 4 days measured up to 30 days post infection (reference value: 5 to 7 days); format: functional; details: route intraperitoneal
[7] = system: Plasmodium falciparum; test: Antimalarial activity against Plasmodium falciparum GHA; format: functional, organism-based
[8] = system: Plasmodium falciparum; test: microbe, parasite or virus in culture; details: K1
Description: Antimalarial activity against Plasmodium falciparum K1

[9] = system: Plasmodium falciparum; test: Antimalarial activity against Plasmodium falciparum W2; format: functional, organism-based
[10] = Distribution coefficient, log D of the compound at pH 7.4; format: physicochemical; details: octanol/water
[11] = Selectivity index, ratio IC50 for rat L6 cells to IC50 for multidrug-resistant Plasmodium falciparum K1 infected in human red blood cells; format: functional
[12] = system: Plasmodium falciparum; test: microbe, parasite or virus in culture; details: FC27/Papua New Guinea
Description: Antimalarial activity against Plasmodium falciparum FC27

[13] = system: Plasmodium falciparum; test: microbe, parasite or virus in culture; details: K1; remark: listed apart in the source
Description: as §1

[14] = system: Plasmodium falciparum; test: microbe, parasite or virus in culture; details: FCR-3/Gambia
Description: Antimalarial activity against Plasmodium falciparum FCR3

[15] = system: Plasmodium falciparum; test: microbe, parasite or virus in culture; details: Mad20/Papua New Guinea
Description: Antimalarial activity against Plasmodium falciparum Mad20

[16] = system: Plasmodium falciparum; test: microbe, parasite or virus in culture; details: W2, 48 h
[17] = system: Plasmodium falciparum; test: microbe, parasite or virus in culture; details: HB3
Description: Antimalarial activity against Plasmodium falciparum HB3

[18] = system: Plasmodium falciparum; test: Ratio IC50 for chloroquine to compound for multidrug-resistant Plasmodium falciparum K1; format: functional
[19] = system: Plasmodium falciparum; test: microbe, parasite or virus in culture; details: NF54
Description: Antimalarial activity against Plasmodium falciparum NF54

[20] = system: Plasmodium berghei; test: Antimalarial activity against GFP-transfected Plasmodium berghei strain ANKA infected in NMRI mouse assessed as complete cure from parasite infection at 3 to 50 mg/kg, po administered as multiple dose for 4 days measured 24 hrs after last treatment; format: functional, organism-based
[21] = system: Plasmodium berghei; test: Antimalarial activity against GFP-transfected Plasmodium berghei strain ANKA infected in NMRI mouse assessed as increase in mean survival time at 25 mg/kg, po administered as single dose (reference value: 5 days )
[22] = Metabolic stability in human liver microsomes assessed as intrinsic clearance per mg protein after 60 mins by LC-MS analysis; format: ADME, Microsome
[23] = system: Plasmodium berghei; test: Antimalarial activity against GFP-transfected Plasmodium berghei strain ANKA infected in NMRI mouse assessed as reduction in parasitemia at 25 mg/kg, po administered as single dose measured on day 3 by FACS analysis; format: functional; set-up: scale not given: the % may be the effect or the level left
[24] = Metabolic stability in mouse liver microsomes assessed as intrinsic clearance per mg protein after 60 mins by LC-MS analysis; format: ADME, Microsome
[25] = system: Plasmodium berghei; test: Antimalarial activity against GFP-transfected Plasmodium berghei strain ANKA infected in NMRI mouse assessed as reduction in parasitemia at 25 mg/kg, po administered as single dose measured on day 5 by FACS analysis; format: functional; set-up: scale not given: the % may be the effect or the level left
[26] = Metabolic stability in mouse liver microsomes assessed as degradation half life after 60 mins by LC-MS analysis; format: ADME, Microsome
[27] = system: Plasmodium berghei; test: Antimalarial activity against GFP-transfected Plasmodium berghei strain ANKA infected in NMRI mouse assessed as reduction in parasitemia at 25 mg/kg, po administered as single dose measured on day 4 by FACS analysis; format: functional; set-up: scale not given: the % may be the effect or the level left
[28] = Metabolic stability in rat liver microsomes assessed as intrinsic clearance per mg protein after 60 mins by LC-MS analysis; format: ADME, Microsome
[29] = system: Plasmodium berghei; test: Antimalarial activity against GFP-transfected Plasmodium berghei strain ANKA infected in NMRI mouse assessed as reduction in parasitemia at 25 mg/kg, po administered as single dose measured on day 2 by FACS analysis; format: functional; set-up: scale not given: the % may be the effect or the level left
[30] = Metabolic stability in rat liver microsomes assessed as degradation half life after 60 mins by LC-MS analysis; format: ADME, Microsome
[31] = Metabolic stability in human liver microsomes assessed as degradation half life after 60 mins by LC-MS analysis; format: ADME, Microsome
[32] = system: Plasmodium berghei; test: Antimalarial activity against GFP-transfected Plasmodium berghei strain ANKA infected in NMRI mouse assessed as reduction in parasitemia at 50 mg/kg, po administered as single dose measured on day 4 by FACS analysis; format: functional; set-up: scale not given: the % may be the effect or the level left
[33] = system: Plasmodium berghei; test: Antimalarial activity against GFP-transfected Plasmodium berghei strain ANKA infected in NMRI mouse assessed as reduction in parasitemia at 50 mg/kg, po administered as single dose measured on day 2 by FACS analysis; format: functional; set-up: scale not given: the % may be the effect or the level left
[34] = system: Plasmodium berghei; test: Antimalarial activity against GFP-transfected Plasmodium berghei strain ANKA infected in NMRI mouse assessed as reduction in parasitemia at 50 mg/kg, po administered as single dose measured on day 5 by FACS analysis; format: functional; set-up: scale not given: the % may be the effect or the level left
[35] = system: Plasmodium berghei; test: Antimalarial activity against GFP-transfected Plasmodium berghei strain ANKA infected in NMRI mouse assessed as reduction in parasitemia at 50 mg/kg, po administered as single dose measured on day 3 by FACS analysis; format: functional; set-up: scale not given: the % may be the effect or the level left
[36] = system: Plasmodium berghei; test: Antimalarial activity against GFP-transfected Plasmodium berghei strain ANKA infected in NMRI mouse assessed as increase in mean survival time at 50 mg/kg, po administered as single dose (reference value: 5 days )

With `CCN(CC)CCCNc1cc(-c2ccc(C(F)(F)F)cc2)c(C#N)c2nc3ccccc3n12.Cl` the pIC50 ([1]; l6) was 5.65, the Activity [2] was 93.4% and the pIC50 [3] was 6.80. For the same compound, the MSD [4] was 11 days, the Activity [5] was 72.6% and the MSD [6] was 9 days.
With `N#Cc1c(-c2ccccc2)cc(N2CCNCC2)n2c1nc1ccccc12` the pIC50 [7] was 6.77, the pIC50 [8] was 6.77 and the pIC50 [9] was 6.77.
In the case of `CCN(CC)CCNc1cc(-c2ccc(C(F)(F)F)cc2)c(C#N)c2nc3ccccc3n12`, the logD [10] was 2.94, the pIC50 ([1]; l6) was 4.54 and the “Ratio IC50” value [11] was 612. For the same compound, the pIC50 [12] was 6.76, the pIC50 [8] was 7.33 and the pIC50 [13] was 7.33. For the same compound, the pIC50 [14] was 6.86, the pIC50 [15] was 6.98 and the pIC50 [16] was 7.08. For the same compound, the pIC50 [17] was 7.22, the “Ratio IC50” value [18] was 3.5 and the pIC50 [19] was 6.96.
`CN(C)CCNc1cc(-c2ccc(C(F)(F)F)cc2)c(C#N)c2nc3ccccc3n12.CS(=O)(=O)O` gave a pIC50 ([1]; l6) of less than 3.76, an Activity [2] of 96.8% and a pIC50 [3] of 6.85. The MSD [4] was 13.7 days, the Activity [5] was 94.1% and the MSD [6] was 11 days.
With `CCNCCNc1cc(-c2ccc(C(F)(F)F)cc2)c(C#N)c2nc3ccccc3n12` [listing 1 of 2 here] the Activity [20] was “inactive”.
Compound `Cl.N#Cc1c(-c2ccc(C(F)(F)F)cc2)cc(NCCN2CCCCC2)n2c1nc1ccccc12` has an MSD [21] of 12.7 days, a microsomal CLint [22] of 45.8 µL/min/mg and an Activity [23] of 28.07%. It also gave a microsomal CLint [24] of 29.1 µL/min/mg, an Activity [25] of 46.41% and a half-life [26] of 0.992 h. For the same compound, the Activity [27] was 38.72%, the microsomal CLint [28] was 27 µL/min/mg and the Activity [29] was 28.44%. It also gave a half-life [30] of 1.07 h and a half-life [31] of 0.632 h.
Compound `CCN(CC)CCNc1cc(-c2ccc(C(F)(F)F)cc2)c(C#N)c2nc3ccccc3n12.CS(=O)(=O)O` has a pIC50 ([1]; l6) of 3.91, an Activity [2] of 97.4% and a pIC50 [3] of 7.05. For the same compound, the MSD [4] was 11 days, the Activity [5] was 95.2% and the MSD [6] was 11 days.
In the case of `Cl.N#Cc1c(-c2ccc(C(F)(F)F)cc2)cc(NCCN2CCCC2)n2c1nc1ccccc12`, the MSD [21] was 7.7 days, the microsomal CLint [22] was 88.4 µL/min/mg and the Activity [23] was 43.2%. It also gave an Activity [32] of 73.01%, an Activity [33] of 14.04% and a microsomal CLint [24] of 25.6 µL/min/mg. For the same compound, the Activity [34] was 88.53%, the Activity [35] was 47.92% and the Activity [25] was 63.72%. The half-life [26] was 1.13 h, the Activity [27] was 63.73% and the MSD [36] was 5 days. For the same compound, the microsomal CLint [28] was 25.8 µL/min/mg, the Activity [29] was 14.75% and the half-life [30] was 1.12 h. It also gave a half-life [31] of 0.327 h.
With `N#Cc1c(-c2ccccc2)cc(NCCN)n2c1nc1ccccc12` the logD [10] was 0.83, the pIC50 ([1]; Rattus norvegicus, L6, 72 h) was 4.72 and the “Ratio IC50” value [11] was 4.2. The pIC50 [13] was 5.35 and the “Ratio IC50” value [18] was 22.
`CCc1nc(N)nc(N)c1-c1ccc(Cl)cc1` [PYRIMETHAMINE] showed a pIC50 [12] greater than 7.22, a pIC50 [8] of 5.00 and a pIC50 [14] of 7.92. It also gave a pIC50 [15] greater than 7.22, a pIC50 [16] of 4.53 and a pIC50 [17] of 5.94. The pIC50 [19] was 7.72.
With `CCNCCNc1cc(-c2ccc(C(F)(F)F)cc2)c(C#N)c2nc3ccccc3n12` [listing 2 of 2 here] the logD [10] was 2.01, the pIC50 ([1]; Rattus norvegicus, L6, 72 h) was 5.61 and the “Ratio IC50” value [11] was 20.5. For the same compound, the pIC50 [12] was 6.96, the pIC50 [8] was 6.94 and the pIC50 [13] was 6.92. For the same compound, the pIC50 [14] was 6.81, the pIC50 [15] was 6.97 and the pIC50 [16] was 6.91. For the same compound, the pIC50 [17] was 7.05 and the pIC50 [19] was 6.96.
